Assay results: patent publication US3947411A, “Novel 1-aryl-2-arylalkyl-3-or-4-[4'-(substituted-alkyl)piperazino-1']butanols- 2-or-butenes-1, and methods of manufacture thereof” (Warner-Lambert Company, priority 1972, dated 1976)
In brackets after ≈: the same amount, converted by molar mass.

Legend:
[1] = system: Escherichia coli; test: Agar well inhibition zone test against bacteria, Escherichia coli (Table III); details: quantity per well giving inhibition zone (500, 50, 5 μg tested); nutrient agar, 37°, 24 hours
[2] = system: C. albicans; test: Minimum inhibitory concentration for fungi in presence of serum, C. albicans (Table VI); type: cell-based; details: Candida albicans; Sabouraud nutrient broth + 10% bovine serum, 28°C, 48 hours
[3] = system: A. niger; test: Minimum inhibitory concentration for fungi, tube dilution, A. niger (Table IV); details: Aspergillus niger, 48 h, read-out: Minimum Inhibitory Concentration, A. niger
[4] = system: Candida albicans; test: Agar well inhibition zone test against fungi, Candida albicans (Table II); details: quantity per well giving inhibition zone (500, 50, 5 μg tested); Sabouraud agar, 28°, 48 hours
[5] = system: C. albicans; test: Minimum inhibitory concentration for fungi, tube dilution, C. albicans (Table IV); details: Candida albicans, 48 h, read-out: Minimum Inhibitory Concentration, C. albicans
[6] = system: Aspergillus niger; test: Agar well inhibition zone test against fungi, Aspergillus niger (Table II); details: quantity per well giving inhibition zone (500, 50, 5 μg tested); Sabouraud agar, 28°, 48 hours
[7] = Solubility in water; type: physicochemical; details: hydrochlorides or oxalates, read-out: solubilities (in water)
Experimental: The following list contains examples of those compounds which are made according to the methods disclosed. (The individual compounds are identified by elementary analyses and infrared spectra, by ultra-violet or nuclear resonance spectra, if necessary.) Individual melting points and solubilities (in water) are also given as is the method by which each compound is prepared.
The melting points and solubilities are given for the Hydrochlorides I - XVI; XVIII - XXVII; XXIX - XXXV; XXXVII - XLII; XLIV - LXII; LXIV - LXVII, and the Oxalates XVII; […]; XXXVI; LXIII.

[8] = system: Staphylococcus aureus; test: Agar well inhibition zone test against bacteria, Staphylococcus aureus (Table III); details: quantity per well giving inhibition zone (500, 50, 5 μg tested); nutrient agar, 37°, 24 hours
[9] = system: A. niger; test: Minimum inhibitory concentration for fungi in presence of serum, A. niger (Table VI); type: cell-based; details: Aspergillus niger; Sabouraud nutrient broth + 10% bovine serum, 28°C, 48 hours
[10] = system: Staph. aureus; test: Minimum inhibitory concentration for bacteria, tube dilution, Staph. aureus (Table V); details: Staphylococcus aureus, 48 h, read-out: Minimum Inhibitory Concentration, Staph. aureus

SMILES | MIC [2] [µg/mL] | MIC [3] [µg/mL] | MIC [5] [µg/mL] | solubility [7] [mg/mL] | MIC [9] [µg/mL] | MIC [10] [µg/mL] | Inhibition Area at μg, E. coli [1] [µg] | Inhibition Area at μg, Cand. albicans [4] [µg] | Inhibition Area at μg, Asp. niger [6] [µg] | Inhibition Area at μg, Staph. aureus [8] [µg]
CC(N1CCN(CCN(C)C)CC1)C(O)(Cc1ccccc1)Cc1ccccc1 (stereo not drawn) [Compound I, 1-phenyl-2-benzyl-3-[4'-(β-dimethylamino-ethyl)-piperazino-1']-butanol-2] | 64 | 128 (≈ 324 µM) | 64 (≈ 162 µM) | 100 (≈ 253000 µM) | – | – | 500 | 50 | 50 | 500
CCN(CC)CCN1CCN(C(C)C(O)(Cc2ccccc2)Cc2ccccc2)CC1 (stereo not drawn) [II, 1-phenyl-2-benzyl-3-[4'-(β-diethylaminoethyl)-piperazino-1']-butanol-2] | – | 512 (≈ 1210 µM) | 1020 (≈ 2420 µM) | 50 (≈ 118000 µM) | – | – | 500 | 50 | 50 | 500
CC(N1CCN(C)CC1)C(O)(Cc1ccccc1)Cc1ccccc1 (centres unmarked) [LI, 1-phenyl-2-benzyl-3-[1'-methyl-piperazino-4'-]-butanol-2] | – | 256 (≈ 756 µM) | 256 (≈ 756 µM) | 200 (≈ 591000 µM) | – | – | 500 | 50 | 50 | 500
OC(Cc1ccccc1)(Cc1ccccc1)CN1CCN(CCN2CCCCC2)CC1 [LIX, β,β '-diphenyl-β"-[4'-(β-piperidino-ethyl)-piperazino-1']-t-butanol] | – | 64 (≈ 152 µM) | – | 100 (≈ 237000 µM) | 64 | 1020 (≈ 2430 µM) | 500 | 500 | 5 | 50
OC(CCN1CCN(CCN2CCCCC2)CC1)(Cc1ccccc1)Cc1ccccc1 [LX, 1-phenyl-2-benzyl-4-[4'-(β-piperidinoethyl)-piperazino-1']-butanol-2] | – | 64 (≈ 147 µM) | – | 100 (≈ 230000 µM) | 8 | – | 500 | 500 | 50 | 500
CN1CCN(CCCCCCN2CCN(CCC(=Cc3ccccc3)Cc3ccccc3)CC2)CC1 [LXV, 1-phenyl-2-benzyl-4-[4'-w-(4"-methyl-piperazino-1")-n-hexyl-piperazino-1']-butene-1] | 32 | 8 (≈ 16.4 µM) | 32 (≈ 65.5 µM) | 100 (≈ 205000 µM) | 8 | – | 500 | 5 | 5 | 500
CC(C(=Cc1ccccc1)Cc1ccccc1)N1CC[N+]2(CCCCCC2)CC1 (centres unmarked) [LXVII, hexahydro-azepinium-1-spiro-1'-piperazinium-4'-(3-benzyl-4-phenyl-but-3-en-2-yl)-chloride] | 64 | 128 | 128 | 10 | 128 | 8 | 500 | 50 | 50 | 50
CC(C(=Cc1ccccc1)Cc1ccccc1)N1CCN(CCCl)CC1 (stereo not drawn) [XLIV, 1-phenyl-2-benzyl-3-(4'-β-chloro-ethyl-piperazino-1')-butene-1] | – | > 1020 | > 1020 | 10 (≈ 27100 µM) | – | – | 500 | 50 | 50 | 500

More lines, main results first:

MIC [2] [µg/mL] | MIC [3] [µg/mL] | MIC [5] [µg/mL] | solubility [7] [mg/mL] | MIC [9] [µg/mL] | MIC [10] [µg/mL] | SMILES | Inhibition Area at μg, E. coli [1] [µg] | Inhibition Area at μg, Cand. albicans [4] [µg] | Inhibition Area at μg, Asp. niger [6] [µg] | Inhibition Area at μg, Staph. aureus [8] [µg]
16 | 16 (≈ 35.5 µM) | 16 (≈ 35.5 µM) | 100 (≈ 222000 µM) | 16 | – | CC(N1CCN(CCN2CCN(C)CC2)CC1)C(O)(Cc1ccccc1)Cc1ccccc1 (stereo not drawn) [X, 1-phenyl-2-benzyl-3-{4'-[β-(4"-methyl-piperazino-1")-ehtyl]-piperazino-1'}-butanol-2] | 500 | 50 | 50 | 500
– | – | > 1020 | 50 (≈ 97500 µM) | – | > 1020 | CC(N1CCN(CCN2CCN(c3ccccc3)CC2)CC1)C(O)(Cc1ccccc1)Cc1ccccc1 (stereo not drawn) [XI, 1-phenyl-2-benzyl-3-{4'-[β-(4"-phenyl-piperazino-1")-ethyl]-piperazino-1'}-butanol-2] | > 500 | 50 | 500 | 50
513 | – | – | 100 (≈ 185000 µM) | 256 | 32 (≈ 59.2 µM) | CC(c1ccccc1)N1CCN(CCN2CCN(C(C)C(O)(Cc3ccccc3)Cc3ccccc3)CC2)CC1 (stereo not drawn) [XIII, 1-phenyl-2-benzyl-3-{4'-[β-(4"-α-phenethyl-piperazino-1")-ethyl]-piperazino-1'}-butanol-2] | 500 | 500 | 500 | 5
– | – | – | 10 (≈ 21900 µM) | – | – | CC(N1CCN(CCN(C)c2ccccc2)CC1)C(O)(Cc1ccccc1)Cc1ccccc1 (stereo not drawn) [XVIII, 1-phenyl-2-benzyl-3-[4'-(β-N-phenyl-N-methyl-aminoethyl)-piperazino-1']-butanol-2] | > 500 | > 500 | > 500 | > 500
128 | – | – | 100 (≈ 241000 µM) | 128 | – | CC(N1CCN(Cc2ccncc2)CC1)C(O)(Cc1ccccc1)Cc1ccccc1 (centres unmarked) [XXIV, 1-phenyl-2-benzyl-3-[4'-(4"-pyridylmethyl)-piperazino-1']-butanol-2] | > 500 | > 500 | > 500 | > 500
– | 64 (≈ 153 µM) | – | 100 (≈ 238000 µM) | – | 128 (≈ 305 µM) | CC(C(=Cc1ccccc1)Cc1ccccc1)N1CCN(CCN2CCOCC2)CC1 (stereo not drawn) [XXXI, 1-phenyl-2-benzyl-3-[4'-(β-morpholino-ethyl)-piperazino-1']-butene-1] | > 500 | 500 | 50 | 50
– | 32 (≈ 74.1 µM) | 16 (≈ 37.1 µM) | 25 (≈ 57900 µM) | – | 128 (≈ 297 µM) | CC1CCCN(CCN2CCN(C(C)C(=Cc3ccccc3)Cc3ccccc3)CC2)C1 (stereo not drawn) [XXXIV, 1-phenyl-2-benzyl-3-{4'-[β-(3"-methylpiperidino)-ethyl]-piperazino-1'}-butene-1] | 500 | 50 | 50 | 50
32 | 2 (≈ 4.62 µM) | 4 (≈ 9.25 µM) | < 10 | 8 | – | CC(C(=Cc1ccccc1)Cc1ccccc1)N1CCN(CCN2CCN(C)CC2)CC1 (stereo not drawn) [XXXVI, 1-phenyl-2-benzyl-3-{4'-[β-(4"-methylpiperazino-1")-ethyl]-piperazino-1'}-butene-1] | > 500 | 50 | 50 | 500
512 | 128 (≈ 252 µM) | 8 (≈ 15.7 µM) | 50 (≈ 98300 µM) | – | 16 (≈ 31.4 µM) | CC(C(=Cc1ccccc1)Cc1ccccc1)N1CCN(CCN2CCN(Cc3ccccc3)CC2)CC1 (stereo not drawn) [XXXVII, 1-phenyl-2-benzyl-3-{4'-[β-(4"-benzylpiperazino-1")-ethyl]-piperazino-1'}-butene-1] | 500 | 5 | 5 | 5
> 1020 | – | – | 100 (≈ 191000 µM) | > 1020 | 128 (≈ 245 µM) | CC(C(=Cc1ccccc1)Cc1ccccc1)N1CCN(CCN2CCN(C(C)c3ccccc3)CC2)CC1 (stereo not drawn) [XXXVIII, 1-phenyl-2-benzyl-3-{4'-[β-(4"-α-phenethyl-piperazino-1")-ethyl]-piperazino-1'}-butene-1] | 500 | 500 | 500 | 5
